T1: ANXA4 (Homo sapiens, UniProt P09525)
T1 construct: purchased Genscript lot N. U8886ED090-5/P3ED001
T1 sequence (P09525 1-319): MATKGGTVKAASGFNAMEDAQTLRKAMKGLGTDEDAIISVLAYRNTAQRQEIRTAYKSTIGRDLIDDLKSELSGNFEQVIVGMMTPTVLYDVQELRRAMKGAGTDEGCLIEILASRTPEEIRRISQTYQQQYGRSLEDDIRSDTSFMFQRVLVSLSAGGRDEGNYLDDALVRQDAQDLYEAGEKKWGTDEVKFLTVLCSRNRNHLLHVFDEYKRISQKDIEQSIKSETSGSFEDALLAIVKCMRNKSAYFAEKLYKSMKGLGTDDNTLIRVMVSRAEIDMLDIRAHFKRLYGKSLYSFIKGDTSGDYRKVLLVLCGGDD

T2: His-tag-ANXA4 (annexin A4) (UniProt P09525 1-319, in MST only: labelled with His-Tag Labeling Kit RED-tris-NTA (NT647 fluorophore))
T2 chain: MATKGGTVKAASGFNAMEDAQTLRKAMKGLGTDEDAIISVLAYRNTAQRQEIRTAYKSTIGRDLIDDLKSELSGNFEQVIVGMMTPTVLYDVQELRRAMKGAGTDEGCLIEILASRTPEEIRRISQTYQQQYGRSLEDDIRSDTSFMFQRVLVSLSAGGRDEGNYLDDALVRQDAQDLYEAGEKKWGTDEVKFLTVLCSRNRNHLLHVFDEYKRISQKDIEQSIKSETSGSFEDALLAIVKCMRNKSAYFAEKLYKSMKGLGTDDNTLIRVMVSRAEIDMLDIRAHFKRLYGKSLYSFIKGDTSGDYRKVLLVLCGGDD

T3: His-tag-ANXA4 (annexin A4) (UniProt P09525 1-319, in MST only: labelled with His-Tag Labeling Kit RED-tris-NTA (NT647 fluorophore))
T3 construct: annexin A4 (ANXA4); Probably human ANXA4, since the work is on human lung cancer cells; also called NT647-ANXA4; ANX4; source: expressed by Genscript (lot N. U8886ED090-5/P3ED001); not shown: His6, C-terminal, kept
T3 sequence (looked up): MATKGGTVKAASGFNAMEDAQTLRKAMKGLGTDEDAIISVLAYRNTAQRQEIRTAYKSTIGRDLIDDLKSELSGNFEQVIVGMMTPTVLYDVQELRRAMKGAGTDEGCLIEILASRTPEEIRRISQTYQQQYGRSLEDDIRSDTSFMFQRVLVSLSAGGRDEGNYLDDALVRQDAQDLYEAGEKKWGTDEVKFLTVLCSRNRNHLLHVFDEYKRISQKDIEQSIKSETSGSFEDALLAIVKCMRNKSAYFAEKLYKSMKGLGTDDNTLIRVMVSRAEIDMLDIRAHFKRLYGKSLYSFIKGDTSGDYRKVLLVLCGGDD


Columns and labels:
A549 cells = type: cell-based; details: peptide (100 μM) + paclitaxel (800 nM); 72 h
Method: A549 were grown in appropriate medium (Sigma Aldrich, St. Louis, MO) supplemented with 10% fetal bovine serum (FBS) (Sigma Aldrich, St. Louis, MO), 1% penicillin/streptomycin (Sigma Aldrich, St. Louis, MO) at 37°C in a 5% CO2 incubator. A549, adenocarcinoma cells line, were treated using a combo of paclitaxel (800 nM, PTX) and peptides (10 μM, 50 μM, 100 µM). After 24, 48, and 72 h, 10 μL/well of CTG detection mix, from CellTiter-Glo Assay Kit (Promega Corp, Madison, United States), were added; plates were gently mixed, incubated for 10 min in the dark, and read using EnVision Multilabel 2103.  FIGURE 8 Inhibition of A549 cell viability in cells treated with paclitaxel (800 nM) and peptides 1–8 (100 μM). Cells were plated in triplicate in 384-well plates and treated with PTX and peptides (DMSO was used as a […] control) for 24, 48, or 72 h. Cell viability was measured using CellTiter assay as described in the Materials and Methods section. Cell viability was expressed as a percentage of control and each column represents the mean ± SD of three independent experiments.

ANXA4 = molecular target: T1, ANXA4; assay: NanoDSF thermal unfolding of ANXA4 with peptides; type: binding; details: peptide 200 μM, protein 40 µM; for Tm (°C): ramp 20-95°C, Ctrl 48.5; for ΔTm at 200 µM: versus Ctrl
Method: The assay was carried out in PBS (pH 7.4, 5 mM CaCl2) buffer using 40 μM of protein and 200 μM of compounds. The samples were loaded into nanoDSF Grade Standard Capillaries (NanoTemper Technologies) and analyzed using the Prometheus NT.48 nanoDSF device (NanoTemper Technologies). Thermal unfolding of the protein was monitored using a linear thermal ramp (1°C/min; 20°C–95°C) with an excitation power of 90%. […] In control, the sample was replaced with buffer solution. Three independent measurements were carried out for each compound, and their mean is depicted. The fluorescence intensity ratio and its first derivative were calculated with the manufacturer’s software (PR.ThermControl, version 2.1.2).
NanoDSF is an advanced differential scanning fluorimetry method for measuring melting temperature (Tm) of peptide-protein complex. In nanoDSF, a protein in solution is exposed to a temperature gradient that leads to the unfolding of the protein. The intrinsic fluorescence of the protein, mainly originating from the aromatic sidechains of tyrosine and tryptophan residues, is examined. Upon unfolding, the environment of those residues alters because they become exposed to the solvent and, thus, their fluorescence intensity changes. The relation between fluorescence intensity changes and temperature gradient can be used to obtain a so-called apparent Tm.

[1] = system: Annexin A4 translocation in A549 and Calu-2 lung cancer cells; parameters: method as in Gaudio et al., 2013; details: A549 and Calu-2 lung cancer cells treated with paclitaxel; ref Gaudio et al., 2013; cited from earlier work
[2] = molecular target: T2, His-tag-ANXA4 (annexin A4); assay: SPR
[3] = molecular target: T3, His-tag-ANXA4 (annexin A4); assay: MST; Monolith NT.115pico; 40 nM NT647-labelled ANXA4 mixed 1:1 with serial dilutions of peptide (highest 50 uM); PBS pH 7.4, 5 mM CaCl2; 10 min at rt; standard-treated capillaries, high MST power, LED 10%; duplicates; details: both partners purified
[4] = molecular target: T3, His-tag-ANXA4 (annexin A4); assay: SPR; Biacore T200; His-tag-ANXA4 captured on anti-histidine antibody coupled to CM5 chip; peptide 0.08-5 uM injected at 25 C, 30 uL/min, 120 s association, 600 s dissociation; HBS-P+ pH 7.4 with 5 mM CaCl2; global 1:1 fit, KD = kd/ka; details: both partners purified

Row | Molecule | Tm (°C) (ANXA4) | ΔTm at 200 µM (ANXA4) | Kd [3] | Kd [4] | other results
1 | Ac-QHLAKPS-NH2 [compound 5, QHLAKPS] | 49.2 °C | 0.7 °C | – | – | –
2 | Ac-QHLIAPS-NH2 [peptide 4, QHLIAPS] | 49.2 °C | 0.7 °C | – | – | –
3 | Ac-QHLIKAS-NH2 [peptide 3, QHLIKAS] | – | 0.5 °C | – | – | –
4 | Ac-QHLIKPA-NH2 (N-terminus and C-terminus assumed) [peptide 2, QHLIKPA] | 48.7 °C | 0.2 °C | – | – | Biological activity in combination with paclitaxel compared to reference peptide 1 (in words) (A549 cells): basically preserves the biological activity
5 | Ac-QHLIKPS-NH2 [peptide 1, QHLIKPS] | 48.6 °C | 0.1 °C | – | – | Inhibition of Annexin A4 translocation from cytosol to plasma membrane [1]: inhibiting Annexin A4 translocation from cytosol to plasma membrane
6 | Ac-QHLIKPS-NH2 (FHIT (fragile histidine triad protein), residues 7-13; also called FHIT (7-13); lead peptide; source: synthetic peptide (Fmoc solid phase, RP-HPLC purified)) [FHIT mimetic peptide 7-13 (peptide 1)] | – | – | 4650 nM | 840 ± 50 nM | Kd [2]: 1260 nM
7 | Ac-QHLIAPS-NH2 (FHIT residues 7-13 with Lys5 of the peptide replaced by Ala; numbers count on: the peptide (residue 1 = Gln7 of FHIT); Lys5 is K11 of FHIT; also called analogue 4; source: synthetic peptide (Fmoc solid phase, RP-HPLC purified)) [peptide 4 (QHLIAPS)] | – | – | 146 nM | 53 ± 10 nM | –
8 | Ac-QHLAKPS-NH2 (FHIT residues 7-13 with Ile4 of the peptide replaced by Ala; numbers count on: the peptide (residue 1 = Gln7 of FHIT); Ile4 is I10 of FHIT; also called analogue 5; source: synthetic peptide (Fmoc solid phase, RP-HPLC purified)) [peptide 5 (QHLAKPS)] | – | – | 1410 nM | – | –
9 | Ac-QHLIKPA-NH2 (FHIT residues 7-13 with Ser7 of the peptide replaced by Ala; numbers count on: the peptide (residue 1 = Gln7 of FHIT); Ser7 is S13 of FHIT; also called analogue 2; source: synthetic peptide (Fmoc solid phase, RP-HPLC purified)) [peptide 2 (QHLIKPA)] | – | – | 218 nM | 552 ± 80 nM | –
10 | Ac-QHLIKAS-NH2 (FHIT residues 7-13 with Pro6 of the peptide replaced by Ala; numbers count on: the peptide (residue 1 = Gln7 of FHIT); Pro6 is P12 of FHIT; also called analogue 3; source: synthetic peptide (Fmoc solid phase, RP-HPLC purified)) [peptide 3 (QHLIKAS)] | – | – | 14 nM | 375 ± 20 nM | –

Further lines, with some results ahead:

Row | Tm (°C) (ANXA4) | ΔTm at 200 µM (ANXA4) | Kd [3] | Kd [4] | Molecule | other results
11 | 48.9 °C | 0.4 °C | – | – | Ac-AHLIKPS-NH2 [peptide 8, AHLIKPS] | Biological activity in combination with paclitaxel compared to reference peptide 1 (in words) (A549 cells): decrease of cell viability compared to reference peptide 1
12 | 49.1 °C | 0.6 °C | – | – | Ac-QALIKPS-NH2 [peptide 7, QALIKPS] | Biological activity in combination with paclitaxel compared to reference peptide 1 (in words) (A549 cells): slightly improves the paclitaxel cytotoxicity
13 | 48.9 °C | 0.4 °C | – | – | Ac-QHAIKPS-NH2 [peptide 6, QHAIKPS] | Biological activity in combination with paclitaxel compared to reference peptide 1 (in words) (A549 cells): slightly improves the paclitaxel cytotoxicity
14 | – | – | 1130 nM | 850 ± 55 nM | Ac-QALIKPS-NH2 (FHIT residues 7-13 with His2 of the peptide replaced by Ala; numbers count on: the peptide (residue 1 = Gln7 of FHIT); His2 is H8 of FHIT; also called derivative 7; source: synthetic peptide (Fmoc solid phase, RP-HPLC purified)) [peptide 7 (QALIKPS)] | –
15 | – | – | 6400 nM | – | Ac-QHAIKPS-NH2 (FHIT residues 7-13 with Leu3 of the peptide replaced by Ala; numbers count on: the peptide (residue 1 = Gln7 of FHIT); Leu3 is L9 of FHIT; also called derivative 6; source: synthetic peptide (Fmoc solid phase, RP-HPLC purified)) [peptide 6 (QHAIKPS)] | –
16 | – | – | 3040 nM | 1520 ± 330 nM | Ac-AHLIKPS-NH2 (FHIT residues 7-13 with Gln1 of the peptide replaced by Ala; numbers count on: the peptide (residue 1 = Gln7 of FHIT); Gln1 is Q7 of FHIT; also called analogue 8; source: synthetic peptide (Fmoc solid phase, RP-HPLC purified)) [peptide 8 (AHLIKPS)] | –

Reference: paper PMC8655160, “Overcome Chemoresistance: Biophysical and Structural Analysis of Synthetic FHIT-Derived Peptides” (Frontiers in Molecular Biosciences, 2021)
